The values that follow come from patent US20260297128A1, “PEPTOID COMPOSITIONS TARGETING RAS PROTEINS AND METHODS OF TREATMENT OF CANCER USING THE SAME” (University of Houston System, priority 2023, published 2026).

The test system of assay [1] is H441 cells. The experiment in a line: MTS cell viability assay. It is filed as cell-based. Conditions: H441 (KRASG12V); vs PKR1. An excerpt: Three cancer cell lines (H441, H358, and H1993) harboring KRAS G12V, KRAS G12C, and WT KRAS, respectively, were subjected to treatment with the fatty acid conjugated-PKR1. […] FIGS. 6A-6C are graphical representations of the effects of the fatty acid conjugated PKR1 derivatives on cell survival and proliferation of (A) H441, (B) H358, and (C) H1993 cell lines. FIG. 6D presents the IC50 values of fatty acid conjugated PKR1 derivatives in H441, H1993, and H358 cell lines. […] As KRAS is predominant in the membrane consisting of unsaturated fatty acids, conjugating unsaturated fatty acids to PKR1 can facilitate its anchoring onto the membrane, thereby improving efficacy.
To examine the capacity of PKR1 derivatives as broad-spectrum KRAS inhibitors, MTS assays were conducted in various types of cell lines representing different cancer types, KRAS mutations, and KRAS gene zygosity (Table 1). IC50 values for each cell line were obtained from the MTS assay with PKR1-C16 treatment.
A general note: Tetrazolium dyes change colour on reduction, which living cells bring about.

In assay [2] the test system is H441 cells. The experiment in a line: Cell viability, single and combination treatment with MEK/ERK inhibitors. The assay is classed as cell-based. As to conditions: Homo sapiens, NCI-H441; single treatment, 3 D incubation; heterozygous KRAS G12V. An excerpt: Provided herein are pan-KRAS inhibitors that can enhance the sensitivity of heterozygous KRAS mutant cells to KRAS downstream inhibitors, thereby overcoming limitations in their use for cancer therapy. FIG. 11A is an illustration presenting that heterozygous KRAS mutant cells are resistant to the inhibition of KRAS downstream signaling while homozygous KRAS mutant cells are sensitive to such inhibition, therefore blocking wild type KRAS potentially re-sensitizes the heterozygous KRAS mutant cells to the inhibition of KRAS downstream signaling. Cell viability of H441 cells harboring heterozygous KRAS G12V were assessed in combination treatment with PKR1-C16. FIG. 11B is a graphical representation presenting the cell viability of H441 harboring heterozygous KRAS G12V with co-treatments of Trametinib (upper panel) and Ulixertinib with PKR1-C16 (lower panel). […] Concentration gradients of Trametinib and Ulixertinib were co-treated with 1, 3, 5, and 7 μM of PKR1-C16, respectively. […] Blocking WT KRAS enables the re-sensitization of heterozygous KRAS mutant cells to the inhibitors of KRAS downstream signaling.

The next assay deals with H2122 cells. As to conditions: homozygous KRAS G12C (H2122) vs heterozygous KRAS G12C (H23); cited from earlier work.

The structures appear in SMILES notation. Non-standard residues stand in square brackets, D forms with d. Residues, ends and D or L forms follow the SMILES beside them. *: point of attachment. X2 = COc1ccc(CN(CC(=O)N(CCCOC(C)C)CC(=O)*)C(=O)CCC(=O)c2cccs2)cc1; N(4-MeOBn)Gly = COc1ccc(CNCC(=O)O)cc1; N((CH2)3OiPr)Gly = CC(C)OCCCNCC(=O)O; Stearoyl = CCCCCCCCCCCCCCCCCC(=O)*; Palmitoyl = CCCCCCCCCCCCCCCC(=O)*; Myristoyl = CCCCCCCCCCCCCC(=O)*; Gly(N-cHex) = O=C(O)CNC1CCCCC1; X1 = O=C(CCC(=O)*)c1cccs1; Nlys = NCCCCNCC(=O)O; Nme = COCCNCC(=O)O

Take `CCCCCCCCCCCCCC(=O)NCCCC[C@H](NC(=O)[C@H](C)NC(=O)CN(CCOC)C(=O)CN(CCCCN)C(=O)CN(CCCCN)C(=O)CN(C(=O)CN(CCCOC(C)C)C(=O)[C@H](CCCCNC(=O)CN(CCCOC(C)C)C(=O)CN(Cc1ccc(OC)cc1)C(=O)CCC(=O)c1cccs1)NC(=O)CN(CCCOC(C)C)C(=O)CN(Cc1ccc(OC)cc1)C(=O)CCC(=O)c1cccs1)C1CCCCC1)C(N)=O` [PKR1-C14] (X1-[N(4-MeOBn)Gly][N((CH2)3OiPr)Gly]K(X2)[N((CH2)3OiPr)Gly][Gly(N-cHex)][Nlys][Nlys][Nme]AK(Myristoyl)-NH2): the increase in potency entry in the assay with H441 cells [1] was “over 25 fold”.

Regarding `CCCCCCCCCCCCCCCC(=O)NCCCC[C@H](NC(=O)[C@H](C)NC(=O)CN(CCOC)C(=O)CN(CCCCN)C(=O)CN(CCCCN)C(=O)CN(C(=O)CN(CCCOC(C)C)C(=O)[C@H](CCCCNC(=O)CN(CCCOC(C)C)C(=O)CN(Cc1ccc(OC)cc1)C(=O)CCC(=O)c1cccs1)NC(=O)CN(CCCOC(C)C)C(=O)CN(Cc1ccc(OC)cc1)C(=O)CCC(=O)c1cccs1)C1CCCCC1)C(N)=O` [PKR1-C16] (X1-[N(4-MeOBn)Gly][N((CH2)3OiPr)Gly]K(X2)[N((CH2)3OiPr)Gly][Gly(N-cHex)][Nlys][Nlys][Nme]AK(Palmitoyl)-NH2), the increase in potency result in the assay on H441 cells [1] is on record as “over 25 fold”. In the case of `CCCCCCCCCCCCCCCCCC(=O)NCCCC[C@H](NC(=O)[C@H](C)NC(=O)CN(CCOC)C(=O)CN(CCCCN)C(=O)CN(CCCCN)C(=O)CN(C(=O)CN(CCCOC(C)C)C(=O)[C@H](CCCCNC(=O)CN(CCCOC(C)C)C(=O)CN(Cc1ccc(OC)cc1)C(=O)CCC(=O)c1cccs1)NC(=O)CN(CCCOC(C)C)C(=O)CN(Cc1ccc(OC)cc1)C(=O)CCC(=O)c1cccs1)C1CCCCC1)C(N)=O` [PKR1-C18] (X1-[N(4-MeOBn)Gly][N((CH2)3OiPr)Gly]K(X2)[N((CH2)3OiPr)Gly][Gly(N-cHex)][Nlys][Nlys][Nme]AK(Stearoyl)-NH2), the increase in potency result with H441 cells [1] was “over 25 fold”. As a reminder, the IC50 is the concentration at which inhibition is half-maximal. Take `CC(=O)Nc1cccc(-n2c(=O)n(C3CC3)c(=O)c3c(Nc4ccc(I)cc4F)n(C)c(=O)c(C)c32)c1` [Trametinib, trametinib]: the 50% inhibitory concentration (IC50) in the assay with H441 cells [2] stood at 10.4 µM. For the same molecule, the “potency in H2122 compared with H23 cells” value with H2122 cells was “higher potency in H2122 cells”. Take `CC(C)Nc1cc(-c2c[nH]c(C(=O)N[C@H](CO)c3cccc(Cl)c3)c2)c(Cl)cn1` [Ulixertinib, ulixertinib]: in the assay on H441 cells [2], the IC50 was 17 µM. The “potency in H2122 compared with H23 cells” value in the assay on H2122 cells is recorded as “higher potency in H2122 cells”.
